Laboratory results reported in patent US9273036B2, “Oxindole derivatives carrying an oxetane substituent and use thereof for treating vasopressine-related diseases” (AbbVie Deutschland GmbH & Co. KG, priority 2013, dated 2016).

Molecular target: T1, human vasopressin V1b receptor (Homo sapiens, UniProt P47901)
T1 sequence (P47901 1-424): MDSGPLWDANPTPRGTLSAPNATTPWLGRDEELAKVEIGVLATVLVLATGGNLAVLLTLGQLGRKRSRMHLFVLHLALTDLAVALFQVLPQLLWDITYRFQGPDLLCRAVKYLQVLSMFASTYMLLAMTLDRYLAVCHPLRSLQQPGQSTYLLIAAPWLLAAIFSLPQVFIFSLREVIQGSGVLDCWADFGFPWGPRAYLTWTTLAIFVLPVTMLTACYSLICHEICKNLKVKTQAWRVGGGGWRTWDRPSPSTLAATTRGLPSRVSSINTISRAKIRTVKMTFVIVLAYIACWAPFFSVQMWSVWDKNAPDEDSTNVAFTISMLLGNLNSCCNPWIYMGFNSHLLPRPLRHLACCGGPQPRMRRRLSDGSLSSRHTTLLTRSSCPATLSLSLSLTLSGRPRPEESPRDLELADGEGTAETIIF
Assay: biochemical

With `CCOc1ncccc1[C@]1(NC(=O)N2CCN(C3CCN(C4COC4)CC3)CC2)C(=O)N(S(=O)(=O)c2ccc(OC)cc2OC)c2ccc(C#N)cc21` [Example 1, (S)—N-(5-cyano-1-((2,4-dimethoxyphenyl)sulfonyl)-3-(2-ethoxypyridin-3-yl)-2-oxoindolin-3-yl)-4-(1-(oxetan-3-yl)piperidin-4-yl)piperazine-1-carboxamide] as the molecule, how does the Ki read?
Its Ki is under 1 nM.

For `CCOc1ncccc1C1(NC(=O)N2CCN(C3CCN(C4COC4)CC3)CC2)C(=O)N(S(=O)(=O)c2ccc(OC)cc2)c2ccc(C#N)cc21` (centres unmarked) [Example 3, N-(5-cyano-3-(2-ethoxypyridin-3-yl)-1-((4-methoxyphenyl)sulfonyl)-2-oxoindolin-3-yl)-4-(1-(oxetan-3-yl)piperidin-4-yl)piperazine-1-carboxamide], which Ki is on record?
Its Ki is 1 to 10 nM.

With `CCOc1ncccc1C1(NC(=O)N2CCN(C3CCN(C4COC4)CC3)CC2)C(=O)N(S(=O)(=O)c2ccccc2)c2ccc(C#N)cc21` (centres unmarked) [Example 4, N-(5-cyano-3-(2-ethoxypyridin-3-yl)-2-oxo-1-(phenylsulfonyl)indolin-3-yl)-4-(1-(oxetan-3-yl)piperidin-4-yl)piperazine-1-carboxamide] as the molecule, how does the Ki read?
Its Ki is 10 to 100 nM.

How did the Ki turn out when `CCOc1ncccc1[C@]1(NC(=O)N2CCN(C3CCN(C4COC4)CC3)CC2)C(=O)N(S(=O)(=O)c2ccc(C#N)cc2)c2ccc(C#N)cc21` [Example 5, (S)—N-(5-cyano-1-((4-cyanophenyl)sulfonyl)-3-(2-ethoxypyridin-3-yl)-2-oxoindolin-3-yl)-4-(1-(oxetan-3-yl)piperidin-4-yl)piperazine-1-carboxamide] was run?
Its Ki is 1 to 10 nM.

For `CCOc1ncccc1[C@]1(NC(=O)N2CCN(C3CCN(C4COC4)CC3)CC2)C(=O)N(S(=O)(=O)c2ccc(OC)cc2F)c2ccc(C#N)cc21` [Example 6, (S)—N-(5-cyano-3-(2-ethoxypyridin-3-yl)-1-((2-fluoro-4-methoxyphenyl)sulfonyl)-2-oxoindolin-3-yl)-4-(1-(oxetan-3-yl)piperidin-4-yl)piperazine-1-carboxamide], which Ki is on record?
The Ki was 1 to 10 nM.

`CCOc1ncccc1[C@]1(NC(=O)N2CCN(C3CCN(C4COC4)CC3)CC2)C(=O)N(S(=O)(=O)c2cc(F)c(OC)cc2OC)c2ccc(C#N)cc21` [Example 8, (S)—N-(5-cyano-3-(2-ethoxypyridin-3-yl)-1-((5-fluoro-2,4-dimethoxyphenyl)sulfonyl)-2-oxoindolin-3-yl)-4-(1-(oxetan-3-yl)piperidin-4-yl)piperazine-1-carboxamide] was tested. Which Ki did it give?
The Ki was 1 to 10 nM.

With `CCOc1ncccc1[C@]1(NC(=O)N2CCN(C3CCN(C4COC4)CC3)CC2)C(=O)N(S(=O)(=O)c2ccc(OC)cc2OC)c2cc(F)c(F)cc21` [Example 9, (S)—N-(1-((2,4-dimethoxyphenyl)sulfonyl)-3-(2-ethoxypyridin-3-yl)-5,6-difluoro-2-oxoindolin-3-yl)-4-(1-(oxetan-3-yl)piperidin-4-yl)piperazine-1-carboxamide] as the molecule, how does the Ki read?
Its Ki is 1 to 10 nM.

For `CCOc1ncccc1[C@]1(NC(=O)N2CCN(C3CCN(C4COC4)CC3)CC2)C(=O)N(S(=O)(=O)c2ccc(OC)cc2OC)c2ccc(Cl)cc21` [Example 10, (S)—N-(5-chloro-1-((2,4-dimethoxyphenyl)sulfonyl)-3-(2-ethoxypyridin-3-yl)-2-oxoindolin-3-yl)-4-(1-(oxetan-3-yl)piperidin-4-yl)piperazine-1-carboxamide], which Ki is on record?
Its Ki is under 1 nM.

With `CCOc1ncccc1[C@]1(NC(=O)N2CCC(N3CCN(C4COC4)CC3)CC2)C(=O)N(S(=O)(=O)c2ccc(C#N)cc2)c2ccc(C#N)cc21` [Example 12, (S)—N-(5-cyano-1-((4-cyanophenyl)sulfonyl)-3-(2-ethoxypyridin-3-yl)-2-oxoindolin-3-yl)-4-(4-(oxetan-3-yl)piperazin-1-yl)piperidine-1-carboxamide] as the molecule, how does the Ki read?
Its Ki is 10 to 100 nM.

With `CCOc1ncccc1[C@]1(NC(=O)N2CCC(N3CCN(C4COC4)CC3)CC2)C(=O)N(S(=O)(=O)c2ccc(OC)cc2)c2ccc(C#N)cc21` [Example 13, (S)—N-(5-cyano-3-(2-ethoxypyridin-3-yl)-1-((4-methoxyphenyl)sulfonyl)-2-oxoindolin-3-yl)-4-(4-(oxetan-3-yl)piperazin-1-yl)piperidine-1-carboxamide] as the molecule, how does the Ki read?
The Ki was 10 to 100 nM.

`CCOc1ncccc1[C@]1(NC(=O)N2CCC(N3CCN(C4COC4)CC3)CC2)C(=O)N(S(=O)(=O)c2ccc(OC)cc2OC)c2ccc(Cl)cc21` [Example 14, (S)—N-(5-chloro-1-((2,4-dimethoxyphenyl)sulfonyl)-3-(2-ethoxypyridin-3-yl)-2-oxoindolin-3-yl)-4-(4-(oxetan-3-yl)piperazin-1-yl)piperidine-1-carboxamide] was tested. Which Ki did it give?
Its Ki is 1 to 10 nM.

With `COc1ccc(S(=O)(=O)N2C(=O)C(NC(=O)N3CCN(C4CCN(C5COC5)CC4)CC3)(c3cccnc3OC)c3cc(C#N)ccc32)c(OC)c1` (centres unmarked) [Example 15, N-(5-cyano-1-((2,4-dimethoxyphenyl)sulfonyl)-3-(2-methoxypyridin-3-yl)-2-oxoindolin-3-yl)-4-(1-(oxetan-3-yl)piperidin-4-yl)piperazine-1-carboxamide] as the molecule, how does the Ki read?
The Ki was 1 to 10 nM.

For `CCOc1ncccc1[C@]1(NC(=O)N2CCC(N3C[C@@H]4C[C@H]3CN4C3COC3)CC2)C(=O)N(S(=O)(=O)c2ccc(OC)cc2OC)c2ccc(C#N)cc21` [Example 17, N—((S)-5-cyano-1-((2,4-dimethoxyphenyl)sulfonyl)-3-(2-ethoxypyridin-3-yl)-2-oxoindolin-3-yl)-4-((1S,4S)-5-(oxetan-3-yl)-2,5-diazabicyclo[2.2.1]heptan-2-yl)piperidine-1-carboxamide], which Ki is on record?
Its Ki is 10 to 100 nM.

Which Ki does the source give for `CCOc1ncccc1[C@]1(NC(=O)N2CCN(C3CCN(C4COC4)CC3)CC2)C(=O)N(S(=O)(=O)c2ccc(OC)c(C)c2C)c2ccc(C#N)cc21` [Example 18, (S)—N-(5-cyano-3-(2-ethoxypyridin-3-yl)-1-((4-methoxy-2,3-dimethylphenyl)sulfonyl)-2-oxoindolin-3-yl)-4-(1-(oxetan-3-yl)piperidin-4-yl)piperazine-1-carboxamide] here?
Its Ki is 10 to 100 nM.
